# Source: patent US20240245704A1, “PHARMACEUTICAL COMPOSITION AND USE OF MULTI-KINASE INHIBITOR” (TRANSTHERA SCIENCES (NANJING), INC., priority 2021, published 2024)
# Test system: human triple negative breast cancer BC408 subcutaneous xenograft tumor model
# Test: In vivo pharmacodynamic study on triple negative breast cancer patient-derived xenograft (PDX) subcutaneous tumor model
# Design: species or system nude mice
# Details: for TGI: TGI=1-T/C from relative tumor volumes
# Protocol: The tumor masses were inoculated into the right back of the mice, the animals were weighed before administration, and tumor volumes were measured. Grouping was designed in blocks according to the tumor volume, with 8 mice per group except for the vehicle control, which contained 6 mice.
# Administration was carried out as in Table 3 below.
# Animals were monitored daily for health status and mortality, body weight and tumor volume were measured twice a week, and samples were collected after the last administration. […] T/C % is the relative tumor proliferation rate, i.e., the percentage of the relative tumor volume in the treatment and control groups at a given time point. T and C are relative tumor volumes (RTVs) of the treatment and control groups at a given time point, respectively. The calculation formula is as follows: T/C %=TRTV/CRTV×100% (TRTV: mean RTV for treatment group; CRTV: mean RTV for vehicle control group; RTV=Vt/V0, wherein V0 is the tumor volume of the animal at the time of grouping, and Vt is the tumor volume of the animal after treatment).
# [1] = BC408 PDX in female nude mice, compound 29 15 mg/kg oral Qd*5 days/week, paclitaxel injection 25 mg/kg intraperitoneal Qw, 5 weeks
Compound,Tumor volume [1],TGI [1],"Inhibitory effect on the triple negative breast cancer PDX subcutaneous tumor model (in words) (BC408 PDX, doses as in Table 3)"
Cc1[nH]nc2c1N=C(c1ccccc1Cl)c1cnc(N3CCOCC3)cc1N2 [Compound 29],666 mm^3,72%,significant inhibitory effect
"CC(=O)O[C@H]1C(=O)[C@@]2(C)[C@H]([C@H](OC(=O)c3ccccc3)[C@]3(O)C[C@H](OC(=O)[C@H](O)[C@@H](NC(=O)c4ccccc4)c4ccccc4)C(C)=C1C3(C)C)[C@]1(OC(C)=O)CO[C@@H]1C[C@@H]2O [Paclitaxel, paclitaxel, reference compound]",–,58%,–
